# According to patent publication US20210060138A1 (priority 2019, published 2021):
# Test system: HIV-1NL4-3-GFP-P2A-Nef
# Assay: ART and LASER ART drug cocktails at 5×EC90 in HIV-1 infected Jurkat T cell line
# Assay type: cell-based
# Conditions: for EC90: Human immunodeficiency virus 1, Jurkat, read-out: 5×EC90 values; for 5×EC90 values: concentration used in the cocktail, equal to 5×EC90
# Protocol: FIGS. 6A-6C show the combined effect of ART and CRISPR/Cas9 on HIV-1 infection of Jurkat T cell line. FIG. 6A: Experimental design and procedure. Jurkat cells were infected with HIV-1NL4-3-GFP-P2A-Nef at multiplicity of infection (MOI) 0.001 and 0.01. […] At day 6 of infection the drugs were removed to allow efficient lentiviral transduction of Cas9 and gRNAs LTR A and LTR B which was conducted at day 7. At day 8 antiretrovirals were added back and continued for another 4 days. Twelve days after HIV-1 infection cells were collected, genomic DNA was extracted and analyzed by PCR for CRISPR-Cas9 mediated cleavage of viral LTR sequences. FIG. 6B: Quantification of the level of infection at day 7. Cells were fixed with 2% PFA and FACS analysis was performed to measure GFP expressing population for HIV infection/replication in vitro. FIG. 6C: Similar to FIG. 6B with exception that cells were treated with modified ART.
# In vitro Infection: HEK-293T cells were transfected using CaPO4 precipitation method in the presence of chloroquine (50 μM) with 30 μg of pNL4-3-EGFP-P2A-Nef plasmid (13)/2.5×10^6 cells/100 mm dish. Next day, medium was replaced; and 24 h and 48 h later supernatants were collected, clarified at 3000 RPM for 10 minutes, filtered through 0.45 um filter, and concentrated by ultracentrifugation for 2 h with 20% sucrose cushion (25). Viral pellets were resuspended in HBSS by gentle agitation overnight, aliquoted, and tittered in Jurkat cells by FACS for GFP expression. Jurkat cells were infected by spinoculation for 1.5 h (26), 32° C. in 500 μl inoculum containing 8 μg/ml polybrene then resuspended and left for 4 h then 500 μl of growth medium was added. Next day, cells were washed 3 times with PBS and re-suspended in growth medium.
Structure (SMILES),EC90 [µg/mL],5×EC90 values [µg/mL]
"Nc1ccn([C@@H]2CS[C@H](CO)O2)c(=O)n1 [3TC, lamivudine]",17.2,
"Nc1nc(NC2CC2)c2ncn([C@H]3C=C[C@@H](CO)C3)c2n1 [ABC, abacavir]",8.3,
"C[C@@H]1CCO[C@H]2Cn3cc(C(=O)NCc4ccc(F)cc4F)c(=O)c(O)c3C(=O)N12 [DTG, dolutegravir]",0.0111,
"CCCCCCCCCCCCCC(=O)OCC1OC(n2ccc(N)nc2=O)CS1 (stereo not shown) [M3TC, myristoylated lamivudine]",,32.9
"CCCCCCCCCCCCCC(=O)OCC1C=CC(n2cnc3c(NC4CC4)nc(N)nc32)C1 (stereo not shown) [MABC, myristoylated abacavir]",,14.4
"CCCCCCCCCCCCCC(=O)Oc1c2n(cc(C(=O)NCc3ccc(F)cc3F)c1=O)C[C@@H]1OCC[C@@H](C)N1C2=O [MDTG, myristoylated dolutegravir]",,0.0167
"Cc1cc(/C=C/C#N)cc(C)c1Nc1ccnc(Nc2ccc(C#N)cc2)n1 [RPV, rilpivirine]",0.0033,
